Residues, ends and D or L forms follow the SMILES beside them.
Tests used:
S. typhimurium = test: Minimal inhibitory concentration (liquid culture); conditions: inoculum 8 × 10^6 CFU/ml; a-b = highest concentration with growth - lowest without growth
[1] = test system: Escherichia coli (11775 Apid R); assay type: cell-based; conditions: agar plate, 50 nanomoles/well, 3 mm wells
[2] = test system: Escherichia coli (ATCC11775); test: Inhibition zone assay (agar plate); assay type: cell-based; conditions: agar plate, 50 nanomoles/well, 3 mm wells
Erwinia amylovora = test: Inhibition zone assay (agar plate); assay type: cell-based; conditions: agar plate, 50 nanomoles/well, 3 mm wells
A. calcoaceticus = test: Minimal inhibitory concentration (liquid culture); conditions: inoculum 16 × 10^6 CFU/ml; a-b = highest concentration with growth - lowest without growth
M. morganii = test: Minimal inhibitory concentration (liquid culture); conditions: inoculum 400 CFU/ml; a-b = highest concentration with growth - lowest without growth
[3] = test system: Acinetobacter calcoaceticus; test: Inhibition zone assay (agar plate); assay type: cell-based; conditions: agar plate, 50 nanomoles/well, 3 mm wells
Pseudomonas syringae = test: Inhibition zone assay (agar plate); assay type: cell-based; conditions: agar plate, 50 nanomoles/well, 3 mm wells
Y. enterocolitica = test: Minimal inhibitory concentration (liquid culture); conditions: inoculum 5000 CFU/ml; a-b = highest concentration with growth - lowest without growth
Legionella pneumophila = assay type: cell-based; conditions: agar plate, 50 nanomoles/well, 3 mm wells
Salmonella typhimurium = test: Inhibition zone assay (agar plate); assay type: cell-based; conditions: agar plate, 50 nanomoles/well, 3 mm wells
Rhizobium meliloti = test: Inhibition zone assay (agar plate); assay type: cell-based; conditions: 50 nanomoles/well, 3 mm wells
Haemophilus influenzae = test: Inhibition zone assay (agar plate); assay type: cell-based; conditions: 50 nanomoles/well, 3 mm wells
[4] = test system: Agrobacterium tumefaciens; test: Inhibition zone assay (agar plate); assay type: cell-based; conditions: agar plate, 50 nanomoles/well, 3 mm wells
Enterobacter cloacae = test: Inhibition zone assay (agar plate); assay type: cell-based; conditions: agar plate, 50 nanomoles/well, 3 mm wells
Klebsiella pneumoniae = test: Inhibition zone assay (agar plate); assay type: cell-based; conditions: agar plate, 50 nanomoles/well, 3 mm wells
Morganella morganii = test: Inhibition zone assay (agar plate); assay type: cell-based; conditions: 50 nanomoles/well, 3 mm wells
E. coli 23802 = test: Minimal inhibitory concentration (liquid culture); conditions: inoculum 5000 CFU/ml; a-b = highest concentration with growth - lowest without growth
E. coli 25922 = test: Minimal inhibitory concentration (liquid culture); conditions: inoculum 1100 CFU/ml; a-b = highest concentration with growth - lowest without growth
E. coli 11775 = test: Minimal inhibitory concentration (liquid culture); conditions: for minimal inhibitory concentration (MIC): a-b = highest concentration with growth - lowest without growth
Campylobacter jejuni = test: Inhibition zone assay (agar plate); assay type: cell-based; conditions: 50 nanomoles/well, 3 mm wells
Escherichia coli (K514) = assay type: cell-based; conditions: agar plate, 50 nanomoles/well, 3 mm wells
E. coli Apid^R = test: Minimal inhibitory concentration (liquid culture); assay type: cell-based; conditions: a-b = highest concentration with growth - lowest without growth
From the text: For details see `Experimental Procedures`.

Salmonella typhi = assay type: cell-based; conditions: agar plate, 50 nanomoles/well, 3 mm wells
Shigella dysenteriae = assay type: cell-based; conditions: agar plate, 50 nanomoles/well, 3 mm wells

SMILES	minimal inhibitory concentration (MIC) (S. typhimurium) [µg/mL]	inhibition zone diameter (number of plus signs) [1]	inhibition zone diameter (number of plus signs) [2]	inhibition zone diameter (number of plus signs) (Erwinia amylovora)	minimal inhibitory concentration (MIC) (A. calcoaceticus) [µg/mL]	minimal inhibitory concentration (MIC) (M. morganii) [µg/mL]	inhibition zone diameter (number of plus signs) [3]	inhibition zone diameter (number of plus signs) (Pseudomonas syringae)	minimal inhibitory concentration (MIC) (Y. enterocolitica) [µg/mL]	inhibition zone diameter (number of plus signs) (Legionella pneumophila)	inhibition zone diameter (number of plus signs) (Salmonella typhimurium)	inhibition zone diameter (number of plus signs) (Rhizobium meliloti)	inhibition zone diameter (number of plus signs) (Haemophilus influenzae)	inhibition zone diameter (number of plus signs) [4]	inhibition zone diameter (number of plus signs) (Enterobacter cloacae)	inhibition zone diameter (number of plus signs) (Klebsiella pneumoniae)	inhibition zone diameter (number of plus signs) (Morganella morganii)	minimal inhibitory concentration (MIC) (E. coli 23802) [µg/mL]	minimal inhibitory concentration (MIC) (E. coli 25922) [µg/mL]	minimal inhibitory concentration (MIC) (E. coli 11775; inoculum 16 × 10^6 CFU/ml) [µg/mL]	further results
CC[C@H](C)[C@H](NC(=O)[C@@H]1CCCN1C(=O)[C@H](C)NC(=O)[C@@H]1CCCN1C(=O)[C@H](CCCNC(=N)N)NC(=O)[C@@H]1CCCN1C(=O)[C@H](CCCNC(=N)N)NC(=O)[C@H](CC(N)=O)NC(=O)[C@@H]1CCCN1C(=O)[C@H](CCCCN)NC(=O)CN)C(=O)N[C@@H](CCC(N)=O)C(=O)N1CCC[C@H]1C(=O)N[C@@H](CCCNC(=N)N)C(=O)N1CCC[C@H]1C(=O)N1CCC[C@H]1C(=O)N[C@@H](Cc1c[nH]cn1)C(=O)N1CCC[C@H]1C(=O)N[C@@H](CCCNC(=N)N)C(=O)N[C@@H](CC(C)C)C(=O)O [Cd 1+, Gly--Lys--Pro--Asn--Arg--Pro--Arg--Pro--Ala--Pro--Ile--Gln--Pro--Arg--Pro--Pro--His--Pro--Arg--Leu] (H-GKPNRPRPAPIQPRPPHPRL-OH)	10 to 20	++ ((++) 7-9 mm)	++ ((++) 7-9 mm)	++ ((++) 7-9 mm)	> 20	10 to 20	++ ((++) 7-9 mm)	++++ ((++++) 15-19 mm)	20 to 40	++ ((++) 7-9 mm)	++ ((++) 7-9 mm)	++++ ((++++) 15-19 mm)	++++ ((++++) 15-19 mm)	++++ ((++++) 15-19 mm)	+++ ((+++) 10-14 mm)	++ ((++) 7-9 mm)	++ ((++) 7-9 mm)	10 to 20	10 to 20	> 20	minimal inhibitory concentration (MIC) (E. coli 11775; inoculum 1200 CFU/ml): 10 to 20 µg/mL; inhibition zone diameter (number of plus signs) (Campylobacter jejuni): +++ ((+++) 10-14 mm); inhibition zone diameter (number of plus signs) (Escherichia coli (K514)): ++ ((++) 7-9 mm)
CC[C@H](C)[C@H](NC(=O)[C@@H]1CCCN1C(=O)[C@H](C)NC(=O)[C@@H]1CCCN1C(=O)[C@H](CCCNC(=N)N)NC(=O)[C@@H]1CCCN1C(=O)[C@H](CCCCN)NC(=O)[C@H](CO)NC(=O)[C@@H]1CCCN1C(=O)[C@H](CCCCN)NC(=O)CN)C(=O)N[C@@H](CCCCN)C(=O)N1CCC[C@H]1C(=O)N[C@@H](CCCNC(=N)N)C(=O)N1CCC[C@H]1C(=O)N1CCC[C@H]1C(=O)N[C@@H](Cc1c[nH]cn1)C(=O)N1CCC[C@H]1C(=O)N[C@@H](CCCNC(=N)N)C(=O)N[C@@H](CC(C)C)C(=O)O [Cd 3+, Gly--Lys--Pro--Ser--Lys--Pro--Arg--Pro--Ala--Pro--Ile--Lys--Pro--Arg--Pro--Pro--His--Pro--Arg--Leu] (H-GKPSKPRPAPIKPRPPHPRL-OH)	0.1 to 0.5	++ ((++) 7-9 mm)	++ ((++) 7-9 mm)	+ ((+) 5-6 mm)	10 to 20	1 to 5	+ ((+) 5-6 mm)	++ ((++) 7-9 mm)	10 to 20	++ ((++) 7-9 mm)	++ ((++) 7-9 mm)	+++ ((+++) 10-14 mm)	++++ ((++++) 15-19 mm)	+++ ((+++) 10-14 mm)	+++ ((+++) 10-14 mm)	++ ((++) 7-9 mm)	++ ((++) 7-9 mm)	0.1 to 0.5	0.1 to 0.5	0.1 to 0.5	minimal inhibitory concentration (MIC) (E. coli Apid^R; inoculum 12 × 10^6 CFU/ml): 0.5 to 1.5 µg/mL; minimal inhibitory concentration (MIC) (E. coli Apid^R; inoculum 12 × 10^6 CFU/ml, listed as Cd3+): measurable activities; minimal inhibitory concentration (MIC) (E. coli Apid^R; inoculum 1000 CFU/ml): 0.5 to 1 µg/mL; minimal inhibitory concentration (MIC) (E. coli 11775; inoculum 1200 CFU/ml): 0.1 to 0.5 µg/mL; inoculum effect on inhibition of viability (E. coli 11775; inoculum sizes differing by four orders of magnitude): equally well; inhibition zone diameter (number of plus signs) (Campylobacter jejuni): +++++ ((+++++) 20 or more min); inhibition zone diameter (number of plus signs) (Salmonella typhi): ++ ((++) 7-9 mm); inhibition zone diameter (number of plus signs) (Escherichia coli (K514)): + ((+) 5-6 mm)
CC[C@H](C)[C@H](NC(=O)[C@@H]1CCCN1C(=O)[C@H](C)NC(=O)[C@@H]1CCCN1C(=O)[C@H](CCCNC(=N)N)NC(=O)[C@@H]1CCCN1C(=O)[C@H](CCCCN)NC(=O)[C@@H](N)CO)C(=O)N[C@@H](CCCCN)C(=O)N1CCC[C@H]1C(=O)N[C@@H](CCCNC(=N)N)C(=O)N1CCC[C@H]1C(=O)N1CCC[C@H]1C(=O)N[C@@H](Cc1c[nH]cn1)C(=O)N1CCC[C@H]1C(=O)N[C@@H](CCCNC(=N)N)C(=O)N[C@@H](CC(C)C)C(=O)O [Cd 3-, Ser--Lys--Pro--Arg--Pro--Ala--Pro--Ile--Lys--Pro--Arg--Pro--Pro--His--Pro--Arg--Leu] (H-SKPRPAPIKPRPPHPRL-OH)	1 to 5	++ ((++) 7-9 mm)	++ ((++) 7-9 mm)	+ ((+) 5-6 mm)	10 to 20	1 to 5	+ ((+) 5-6 mm)	++ ((++) 7-9 mm)	20 to 40	++ ((++) 7-9 mm)	++ ((++) 7-9 mm)	++++ ((++++) 15-19 mm)	+++ ((+++) 10-14 mm)	++ ((++) 7-9 mm)	+++ ((+++) 10-14 mm)	++ ((++) 7-9 mm)	++ ((++) 7-9 mm)	5 to 10	0.5 to 1	0.5 to 1	inhibition zone diameter (number of plus signs) (Shigella dysenteriae): ++ ((++) 7-9 mm); minimal inhibitory concentration (MIC) (E. coli Apid^R; inoculum 12 × 10^6 CFU/ml): 5 to 10 µg/mL; minimal inhibitory concentration (MIC) (E. coli Apid^R; inoculum 1000 CFU/ml): 5 to 10 µg/mL; minimal inhibitory concentration (MIC) (E. coli 11775; inoculum 1200 CFU/ml): 0.1 to 0.5 µg/mL; inhibition zone diameter (number of plus signs) (Campylobacter jejuni): ++++ ((++++) 15-19 mm); inhibition zone diameter (number of plus signs) (Escherichia coli (K514)): + ((+) 5-6 mm)

From patent US5466671A, “Apidaecin-type peptide antibiotics with improved activities and/or different antibacterial spectrum” (priority 1994, dated 1995)
